Results published in paper PMC6271077, “Synthesis, Anticancer and Antibacterial Activity of Salinomycin N-Benzyl Amides” (Molecules, 2014).
≈ marks a conversion by molar mass, not a printed value.

Key:
MRSA 573/12 = test: MIC microdilution, hospital MRSA; type: cell-based; settings: Staphylococcus aureus; hospital MRSA strain 573/12; read-out: MIC
MRSA 462/11 = test: MIC microdilution, hospital MRSA; type: cell-based; settings: Staphylococcus aureus; hospital MRSA strain 462/11; read-out: MIC
MRSE 461/11 = test: MIC microdilution, hospital MRSE; type: cell-based; settings: Staphylococcus epidermidis; hospital MRSE strain 461/11; read-out: MIC
MRSA 514/11 = test: MIC microdilution, hospital MRSA; type: cell-based; settings: Staphylococcus aureus; hospital MRSA strain 514/11; read-out: MIC
MRSE 488/11 = test: MIC microdilution, hospital MRSE; type: cell-based; settings: Staphylococcus epidermidis; hospital MRSE strain 488/11; read-out: MIC
MRSE 469/11 = test: MIC microdilution, hospital MRSE; type: cell-based; settings: Staphylococcus epidermidis; hospital MRSE strain 469/11; read-out: MIC
[1] = test system: S. epidermidis ATCC 12228; test: MIC microdilution; type: cell-based; settings: Staphylococcus epidermidis, ATCC12228; S. epidermidis ATCC 12228; 18 h, 35 °C; read-out: MIC
MRSE 467/11 = test: MIC microdilution, hospital MRSE; type: cell-based; settings: Staphylococcus epidermidis; hospital MRSE strain 467/11; read-out: MIC
S. aureus ATCC 6538 [2] = test: MIC microdilution; type: cell-based; settings: Staphylococcus aureus, ATCC6538; S. aureus ATCC 6538; 18 h, 35 °C; read-out: MIC
MRSA 522/12 = test: MIC microdilution, hospital MRSA; type: cell-based; settings: Staphylococcus aureus; hospital MRSA strain 522/12; read-out: MIC
MRSE 466/11 = test: MIC microdilution, hospital MRSE; type: cell-based; settings: Staphylococcus epidermidis; hospital MRSE strain 466/11; read-out: MIC
MRSA = test: MIC microdilution, MRSA strains overall (range given); type: cell-based, Staphylococcus aureus; settings: hospital MRSA strains
MRSA 452/11 = test: MIC microdilution, hospital MRSA; type: cell-based; settings: Staphylococcus aureus; hospital MRSA strain 452/11; read-out: MIC
[3] = test system: S. epidermidis ATCC 35984; test: Disc-diffusion (GIZ); type: cell-based; settings: 18 h, 35 °C, un: unmeasurable
Excerpt: (§1) Microorganisms used in this study were as follows: Gram-positive cocci: S. aureus NCTC 4163, S. aureus ATCC 25923, S. aureus ATCC 6538, S. aureus ATCC 29213, S. epidermidis ATCC 12228, S. epidermidis ATCC 35984, Gram-negative rods: E. coli ATCC 10538, E. coli ATCC 25922, E. coli NCTC 8196, P. vulgaris NCTC 4635, P. aeruginosa ATCC 15442, P. aeruginosa NCTC 6749, P. aeruginosa ATCC 27863, B. bronchiseptica ATCC 4617 and yeasts: C. albicans ATCC 10231, C. albicans ATCC 90028, C. parapsilosis ATCC 22019. The other microorganisms used were obtained from the collection of the Department of Pharmaceutical Microbiology, Medical University of Warsaw, Poland.
(§2) Antibacterial activity was examined by the disc-diffusion method under standard conditions using Mueller-Hinton II agar medium (Becton Dickinson, Heidelberg, Germany) according to CLSI (previously NCCLS) guidelines. Antifungal activities were assessed using Muellere Hinton agar + 2% glucose and 0.5 mg/mL Methylene Blue Dye Medium.
(§3) Sterile filter paper discs (9 mm diameter, Whatman No. 3 chromatography paper) were dripped with tested compound solutions (in EtOH) to load […] of a given compound per disc. Dry discs were placed on the surface of appropriate agar medium. The results (diameter of the growth inhibition zone, GIZ) were read after 18 h of incubation at 35 °C.

S. aureus ATCC 6538 [4] = test: Disc-diffusion (GIZ); type: cell-based; settings: 18 h, 35 °C, un: unmeasurable
Excerpt: as §1, §2, §3

[5] = test system: S. epidermidis ATCC 12228; test: Disc-diffusion (GIZ); type: cell-based; settings: 18 h, 35 °C, un: unmeasurable
Excerpt: as §1, §2, §3

S. aureus ATCC 25923 = test: Disc-diffusion (GIZ); type: cell-based; settings: 18 h, 35 °C, un: unmeasurable
Excerpt: as §1, §2, §3

S. aureus ATCC 4163 [6] = test: Disc-diffusion (GIZ); type: cell-based; settings: 18 h, 35 °C, un: unmeasurable
Excerpt: as §1, §2, §3

S. aureus ATCC 29213 [7] = test: Disc-diffusion (GIZ); type: cell-based; settings: 18 h, 35 °C, un: unmeasurable
Excerpt: as §1, §2, §3

MRSE 459/11 = test: MIC microdilution, hospital MRSE; type: cell-based; settings: Staphylococcus epidermidis; hospital MRSE strain 459/11; read-out: MIC
S. aureus ATCC 4163 [8] = test: MIC microdilution; type: cell-based; settings: Staphylococcus aureus, ATCC4163; S. aureus ATCC 4163; 18 h, 35 °C; read-out: MIC
MRSA 537/12 = test: MIC microdilution, hospital MRSA; type: cell-based; settings: Staphylococcus aureus; hospital MRSA strain 537/12; read-out: MIC
S. aureus ATCC 29213 [9] = test: MIC microdilution; type: cell-based; settings: Staphylococcus aureus, ATCC29213; S. aureus ATCC 29213; 18 h, 35 °C; read-out: MIC
MRSA 586/12 = test: MIC microdilution, hospital MRSA; type: cell-based; settings: Staphylococcus aureus; hospital MRSA strain 586/12; read-out: MIC
MRSA 585/12 = test: MIC microdilution, hospital MRSA; type: cell-based; settings: Staphylococcus aureus; hospital MRSA strain 585/12; read-out: MIC
MRSA 456/11 = test: MIC microdilution, hospital MRSA; type: cell-based; settings: Staphylococcus aureus; hospital MRSA strain 456/11; read-out: MIC
MRSA 572/12 = test: MIC microdilution, hospital MRSA; type: cell-based; settings: Staphylococcus aureus; hospital MRSA strain 572/12; read-out: MIC
MRSE 489/11 = test: MIC microdilution, hospital MRSE; type: cell-based; settings: Staphylococcus epidermidis; hospital MRSE strain 489/11; read-out: MIC
MRSE 468/11 = test: MIC microdilution, hospital MRSE; type: cell-based; settings: Staphylococcus epidermidis; hospital MRSE strain 468/11; read-out: MIC

MIC (MRSA 573/12): 32 µg/mL (≈ 96.6 µM)
MIC (MRSA 462/11): 64 µg/mL (≈ 193 µM)
MIC (MRSE 461/11): 0.25 µg/mL (≈ 0.754 µM)
MIC (MRSA 514/11): 32 µg/mL (≈ 96.6 µM)
MIC (MRSE 488/11): 16 µg/mL (≈ 48.3 µM)
MIC (MRSE 469/11): 8 µg/mL (≈ 24.1 µM)
MIC [1]: 0.25 µg/mL (≈ 0.754 µM)
MIC (MRSE 467/11): 16 µg/mL (≈ 48.3 µM)
MIC (S. aureus ATCC 6538 [2]): 0.25 µg/mL (≈ 0.754 µM)
MIC (MRSA 522/12): 32 µg/mL (≈ 96.6 µM)
MIC (MRSE 466/11): 2 µg/mL (≈ 6.04 µM)
MIC (range over MRSA strains) (MRSA): 32 to 64 µg/mL
MIC (MRSA 452/11): 32 µg/mL (≈ 96.6 µM)
MIC (MRSE 459/11): 16 µg/mL (≈ 48.3 µM)
MIC (S. aureus ATCC 4163 [8]): 0.25 µg/mL (≈ 0.754 µM)
MIC (MRSA 537/12): 64 µg/mL (≈ 193 µM)
MIC (S. aureus ATCC 29213 [9]): 0.5 µg/mL (≈ 1.51 µM)
MIC (MRSA 586/12): 64 µg/mL (≈ 193 µM)
MIC (MRSA 585/12): 64 µg/mL (≈ 193 µM)
MIC (MRSA 456/11): 32 µg/mL (≈ 96.6 µM)
MIC (MRSA 572/12): 64 µg/mL (≈ 193 µM)
MIC (MRSE 489/11): 0.25 µg/mL (≈ 0.754 µM)
MIC (MRSE 468/11): 16 µg/mL (≈ 48.3 µM)
SMILES: O=C(O)c1cn(C2CC2)c2cc(N3CCNCC3)c(F)cc2c1=O [ciprofloxacin, reference compound]
GIZ [3]: 32 mm
GIZ (S. aureus ATCC 6538 [4]): 28 mm
GIZ [5]: 30 mm
GIZ (S. aureus ATCC 25923): 26 mm
GIZ (S. aureus ATCC 4163 [6]): 26 mm
GIZ (S. aureus ATCC 29213 [7]): 22 mm
